Measured values published in patent publication US9765115B2, “Inhibitors of metastasis, methods of generating such inhibitors and their therapeutic applications” (Board of Supervisors of Louisiana State University acting …, priority 2011, dated 2017).

What was measured:
prostate tumor = conditions: Shah et al., 2009; cited from earlier work
[1] = test system: TCF/LEF promoter activity in PC-3 cells; assay: TCF/LEF luciferase reporter assay (pGL3-OT/pGL3-OF); assay type: cell-based
Experimental: FIG. 28 depicts effect of CT on TCF/LEF promoter activity in PC-3 cells with various compounds added with CT. Cells were seeded into 6-well plates and transfected with the pGL3-OT luciferase/pRL-tK plasmids or pGL3-OF-luciferase/pRL-TK plasmids. The cells were then incubated in complete medium for 48 h, after which they were serum-starved for 16 h. The cells were then treated with CT and/or PMH compounds, and the cell lysates analyzed for luciferase activity. The results are expressed as relative light units (RLU) after normalization with Renilla luciferase activity. The experiment was repeated three separate times, and results expressed as means±S.E.M.
Certain hydantoin-like molecules isolated from sea sponge have been identified that could inhibit prostate cell metastasis (Shah et al., 2009; Mudit et al., 2011). Disruption of junctional complex stabilizes intracellular β-catenin, leading to its translocation in the nucleus, where it can bind to its partner LEF-1 (lymphocyte enhancer binding factor-1) to transactivate target genes. The transcription of TCF/LEF genes can be quantitated by using luciferase-based reporter plasmids, pGL3-OT and pGL3-OF, the improved version of the Topflash and Fopflash vectors (Shah et al., 2009). This assay can be used to comparatively evaluate junction disrupting activity of multiple compounds in a single assay. […] The two compounds, MRM-6 and MRM-4, derivatives of PMH whose structures are shown below, were obtained from Dr. K. A. El Sayed.

protein kinase A (PKA) = assay: PKA activity in cell lysates; assay type: cell-based; conditions: 100 nM of mPKI, 10 μM of H-89
Experimental: The lysates of untreated and CT-treated PC-3CTRwt and PC-3CTRΔESS cells were also used to determine CT-stimulated protein kinase A (PKA) and protein kinase C (PKC) activity (PKA and PKC assay kits, Promega, Madison, Wis.). The manufacturer's instructions were followed.
FIG. 1E depicts the effect of 50 nM CT on PKA activity in cell lysates of untreated and CT-treated PC-3 CTRwt and PC-3 CTRΔESS cells that were incubated with PKA substrate peptide and ^32P-ATP, and also treated with an activator of PKA, forskolin (FSK). FIG. 1F depicts the effect of 50 nM CT on PKC activity in lysates of untreated and CT-treated PC-3 CTRwt and PC-3 CTRΔESS cells that were incubated with PKC substrate peptide and ^32P-ATP, and also treated with an activator of PKC, phorbol 12-myristate 13-acetate (PMA).
To test whether specific PKA inhibitors abrogate CT-induced TJ disassembly, two specific, well-characterized PKA inhibitors, mPKI and H-89, were used. PC-3CTRwt cells were treated with CT (50 nM for 30 min) in the presence of mPKI (100 nM) or H-89 (10 μM). Either of these inhibitors was added 15 min prior to the addition of CT. […] FIG. 16A depicts photo micrographs of PC3-CTRwt cells, CT-stimulated in the presence and absence of mPKI. […]

ZO-1 = biological target: T1, ZO-1 (Homo sapiens, UniProt Q07157); assay: 125I-Pep I binding to ZO-1 (ZO-1 immunoprecipitation, autoradiography)
T1 construct: expressed in transfected cells; host or cells: PC-3CTR-ZO-1-MYC cells
T1 sequence (Q07157 whole entry): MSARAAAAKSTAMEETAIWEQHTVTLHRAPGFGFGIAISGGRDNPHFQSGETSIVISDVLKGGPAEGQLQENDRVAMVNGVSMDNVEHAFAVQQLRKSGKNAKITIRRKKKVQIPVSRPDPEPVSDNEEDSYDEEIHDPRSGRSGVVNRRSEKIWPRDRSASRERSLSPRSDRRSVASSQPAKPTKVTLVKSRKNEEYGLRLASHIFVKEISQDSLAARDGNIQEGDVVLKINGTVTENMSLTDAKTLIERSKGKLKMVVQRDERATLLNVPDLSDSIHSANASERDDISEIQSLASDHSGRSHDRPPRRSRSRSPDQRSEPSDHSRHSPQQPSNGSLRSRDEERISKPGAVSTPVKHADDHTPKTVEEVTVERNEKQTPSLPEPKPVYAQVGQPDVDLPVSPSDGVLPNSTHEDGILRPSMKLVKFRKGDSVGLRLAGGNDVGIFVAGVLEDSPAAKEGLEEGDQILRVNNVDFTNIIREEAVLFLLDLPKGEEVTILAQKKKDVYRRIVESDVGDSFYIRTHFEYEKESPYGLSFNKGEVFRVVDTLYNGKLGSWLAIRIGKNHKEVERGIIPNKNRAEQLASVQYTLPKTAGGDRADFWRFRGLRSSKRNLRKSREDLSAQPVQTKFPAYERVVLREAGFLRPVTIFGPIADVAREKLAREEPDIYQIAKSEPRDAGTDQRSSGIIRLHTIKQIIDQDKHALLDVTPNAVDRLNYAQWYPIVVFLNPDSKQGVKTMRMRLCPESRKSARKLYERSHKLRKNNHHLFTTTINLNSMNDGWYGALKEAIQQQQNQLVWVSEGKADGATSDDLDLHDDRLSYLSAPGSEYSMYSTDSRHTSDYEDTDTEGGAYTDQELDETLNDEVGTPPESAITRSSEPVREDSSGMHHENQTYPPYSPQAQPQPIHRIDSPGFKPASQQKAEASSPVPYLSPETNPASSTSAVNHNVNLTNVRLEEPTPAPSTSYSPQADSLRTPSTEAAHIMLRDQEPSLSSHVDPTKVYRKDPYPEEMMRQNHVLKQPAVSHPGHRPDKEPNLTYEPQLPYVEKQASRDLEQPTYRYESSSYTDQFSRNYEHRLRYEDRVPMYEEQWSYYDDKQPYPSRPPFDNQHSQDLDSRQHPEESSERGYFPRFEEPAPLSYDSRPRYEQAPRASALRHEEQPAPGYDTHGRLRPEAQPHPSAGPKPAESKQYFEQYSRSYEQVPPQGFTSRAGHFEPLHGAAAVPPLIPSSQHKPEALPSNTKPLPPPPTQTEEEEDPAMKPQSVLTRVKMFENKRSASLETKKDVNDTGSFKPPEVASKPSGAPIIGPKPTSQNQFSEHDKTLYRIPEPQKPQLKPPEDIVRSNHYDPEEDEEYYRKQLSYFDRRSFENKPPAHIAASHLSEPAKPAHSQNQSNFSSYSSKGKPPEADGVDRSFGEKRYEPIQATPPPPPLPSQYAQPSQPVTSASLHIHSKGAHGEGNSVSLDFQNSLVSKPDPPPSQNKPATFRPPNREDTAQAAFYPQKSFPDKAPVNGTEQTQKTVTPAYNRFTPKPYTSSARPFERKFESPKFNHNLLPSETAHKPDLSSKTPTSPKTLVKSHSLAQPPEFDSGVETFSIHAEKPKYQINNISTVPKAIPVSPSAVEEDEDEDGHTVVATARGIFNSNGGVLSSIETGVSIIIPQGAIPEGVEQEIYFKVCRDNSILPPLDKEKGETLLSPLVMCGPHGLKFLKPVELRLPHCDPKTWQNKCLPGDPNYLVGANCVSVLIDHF
Experimental: The cells were then treated with ^125I-TAT-pepI or TAT-C for 25 min. The cell lysates were then immunoprecipitated with Anti-ZO-1 serum, the immunoprecipitates were washed, fractionated on SDS-gel, and then immunoblotted for ZO-1 and autoradiographed.
As shown above, CTR binds to ZO-1 through PDZ interaction (i.e. PDZ ligand on C-tail of CTR binds to the PDZ domain of ZO-1). To attenuate this binding, ZO-1 was saturated with a small C-terminal peptide of CTR sequence containing the PDZ-binding motif. Since ZO-1 is an intracellular membrane protein, the interfering peptide was delivered inside the plasma membrane. It has been shown that trans-activating transcriptional activator (TAT) protein (86-mer polypeptide) from HIV-1 enters mammalian cells when added to the surrounding media (Frankel et al., 1988; Green et al., 1989). Certain small regions of such proteins (10-16-mers) called protein transduction domains (PTDs), also efficiently traverse biological membranes (Elliott et al., 1997). Therefore, a fusion peptide Pep 1 was synthesized of TAT-peptide sequences of HIV virus and CTR-C(N-[…]-C (SEQ ID NO:2), CTR-C sequence underlined). The first experiment was to see if Pep I binds to ZO-1 in reversible fashion. For this, amino acid Y in Pep I was labeled with ^125I, and the binding with ZO-1 analyzed in the presence/absence of unlabeled Pep I (1000×; 20 μM). […]

CTR-ZO-1 interaction = assay: CTR-ZO-1 co-immunoprecipitation; assay type: cell-based; conditions: Pep I 50 μM, with or without CT 50 nM, PC-3-CTR-wt cells
Experimental: Serum-starved PC-31-V, PC-31-CTRwt or PC-31-CTRΔESS cells (2×10^6 per 100 mm dish) were stimulated with or without 50 nM CT for 3 min, washed, and lysed in the IP buffer as previously described (von Zastrow et al., 1994). CTR in normalized lysate proteins was immunoprecipitated with anti-FLAG EZ-view beads (Sigma Chemical Co., St. Louis, Mo.), and eluted with FLAG peptide (600 μg/ml in PBS). CTR immunoprecipitates were processed for ZO-1 immunoblotting. To control for protein loading and transfer, the blots were stripped and reprobed with immunoprecipitating antibody.
PC-31 cells stably expressing either FLAG-CTRwt or FLAGCTRΔESS were treated with or without CT for 3 min. The analysis of FLAG-CTR IPs confirmed that only FLAG-CTRwt, but not FLAG-CTRΔESS, co-precipitated ZO-1 (FIG. 3B). […] The effect of multiple CT concentrations on CTR-ZO-1 co-precipitation was tested in PC-3 cells. […] However, co-precipitation of ZO-1 by CTRwt was strong in PC-3 cells stimulated with 10 nM CT, and was even stronger in the cells receiving 100 nM CT.
(§1) As shown above, CTR binds to ZO-1 through PDZ interaction (i.e. PDZ ligand on C-tail of CTR binds to the PDZ domain of ZO-1). To attenuate this binding, ZO-1 was saturated with a small C-terminal peptide of CTR sequence containing the PDZ-binding motif. Since ZO-1 is an intracellular membrane protein, the interfering peptide was delivered inside the plasma membrane. It has been shown that trans-activating transcriptional activator (TAT) protein (86-mer polypeptide) from HIV-1 enters mammalian cells when added to the surrounding media (Frankel et al., 1988; Green et al., 1989). Certain small regions of such proteins (10-16-mers) called protein transduction domains (PTDs), also efficiently traverse biological membranes (Elliott et al., 1997). Therefore, a fusion peptide Pep 1 was synthesized of TAT-peptide sequences of HIV virus and CTR-C(N-[…]-C (SEQ ID NO:2), CTR-C sequence underlined). The first experiment was to see if Pep I binds to ZO-1 in reversible fashion. For this, amino acid Y in Pep I was labeled with ^125I, and the binding with ZO-1 analyzed in the presence/absence of unlabeled Pep I (1000×; 20 μM). PC-3CTR-ZO-1-MYC cells were first incubated with unlabeled Pep I or control peptide (20 μM) for 5 min. The cells were then incubated with ^125I-pep I or C for 25 min. The cells were then washed in IP buffer, treated with DSP, and lysed. ZO-1 IPs were obtained, fractionated on SDS-PAGE, and autoradiographed. […] Next, whether Pep I competes with CTR for ZO-1 binding was tested. For this, PC-3-CTR-wt cells were treated with CT (50 nM) and or Pep I (50 μM) for 15 min. The CTR IPs were then immunoblotted and probed for ZO-1 immunoreactivity. […] Next, the biological impact of this phenomenon was examined by testing the effect of Pep I on CTR-stimulated invasion.

PC-3-CTR-wt cells = assay: Matrigel in vitro invasion assay; assay type: cell-based; conditions: for effect on CT-induced invasion / effect on basal invasion: peptide 50 μM; for effect on CT-induced invasion: CT 50 nM; for effect on basal invasion: no CT
Experimental: Invasion experiments were conducted in Matrigel™ invasion chambers as previously described (Sabbisetti et al., 2005).
CT increases invasiveness, and even induces an invasive phenotype in non-invasive prostate cancer cells. The role of PDZ-binding motif in CT-stimulated invasion was examined. FIG. 2C depicts CTR-C PDZ-binding motif mutation and effects on cell invasion. PC-3V, PC-3 CTRwt and PC-3 CTRΔESS cells were added to upper insert of invasion chambers with or without 50 nM CT, and cells that passed through the Matrigel™ barrier were counted after 48 h. The results are expressed as mean number of invaded cells per 400× field ±SEM (n=6; *p<0.05 (PC-3V v PC-3CTR-wt); $ p<0.05 (PC-3CTR-wt v PC-3CTRΔESS); $$-p<0.05 (PC-3CTRwt+CT v PC-3CTRΔESS+CT) (one-way ANOVA and Newman-Keul's test)). Expression of CTRwt in PC-3 cells increased invasion by 2.5-fold (FIG. 2C).
as §1
The binding of ZO-1 and CTR can be attenuated by saturating ZO-1 with a small C-terminal peptide of CTR sequence containing the PDZ ligand. Since ZO-1 is an intracellular membrane protein, the interfering peptide must penetrate plasma membrane to interact with ZO-1. As discussed above, fusion peptides of small TAT peptides (12-mer) and six (Pep I) or eight amino acids (Pep II) of C-terminal of CTR were synthesized. Control peptides were TAT peptides (12-mer) containing random amino acid sequence of equivalent size (6-mer). […] Thus, these two peptides (sequences given below) could be used therapeutically to attenuate or inhibit metastasis in cancerous cells.

O=C1NC(=O)/C(=C/c2ccccc2)N1 [PMH, phenyl-methylene hydrantoin]
cell-cell adhesion, prostate tumor growth and metastasis (prostate tumor): enhance cell-cell adhesion and attenuate prostate tumor growth and metastasis | effect on CT-stimulated luciferase activity ([1]; with 50 nM CT): decreased it remarkably

CCSC1=N/C(=C\c2ccccc2)C(=O)N1 [S-PMH]
cell-cell adhesion, prostate tumor growth and metastasis (prostate tumor): enhance cell-cell adhesion and attenuate prostate tumor growth and metastasis

O=S(=O)(NCCNC/C=C/c1ccc(Br)cc1)c1cccc2cnccc12 [Pep H-89]
effect on CT-stimulated PKA activity (protein kinase A (PKA)): completely abolished

Nc1ccc(/C=C2\NC(=O)NC2=O)c(Cl)c1 [MRM-4, (Z)-5-(4-amino-2-chlorobenzylidene)imidazolidine-2,4-dione]
potency relative to PMH and S-PMH in blocking CTR-ZO-1 interaction-mediated TCF/LEF activity [1]: more potent | potency relative to PMH in inhibiting CT action ([1]; with 50 nM CT): significantly more potent than PMH

O=C1NC(=O)/C(=C/c2ccc(/C=C3/NC(=O)NC3=O)cc2)N1 [MRM-6, (5Z,5′E)-5,5′-(1,4-phenylenebis(methan-1-yl-1-ylidene))diimidazolidine-2,4-dione]
potency relative to PMH and S-PMH in blocking CTR-ZO-1 interaction-mediated TCF/LEF activity [1]: more potent | potency relative to PMH in inhibiting CT action ([1]; with 50 nM CT): significantly more potent than PMH

N-EQESSAAYGRKKRRQRRR-C [Pep I]
binding to ZO-1 (co-IP of 125I-labeled peptide) (ZO-1; PC-3CTR-ZO-1-MYC cells, 25 min): bound to ZO-1 | binding of 125I-Pep I to ZO-1 in the presence of unlabeled Pep I (ZO-1; unlabeled Pep I 1000×, 20 μM): almost abolished | effect on CTR-ZO-1 co-precipitation (CTR-ZO-1 interaction): markedly diminished | relative potency as antagonist of CT-induced invasion (PC-3-CTR-wt cells; Pep I versus Pep II, 50 μM): the more potent antagonist | effect on CT-induced invasion (PC-3-CTR-wt cells): significantly attenuated | effect on CT-induced invasion (PC-3-CTR-wt cells; listed as TAT-pepI): attenuate | effect on basal invasion (PC-3-CTR-wt cells): neither the control peptide nor Pep I (50 μM) significantly affected | effect on basal invasion (PC-3-CTR-wt cells; listed as PepI): did not significantly affect

N-IIEQESSAYGRKKRRQRRR-C [Pep II]
effect on CT-induced invasion (PC-3-CTR-wt cells): significantly attenuated | effect on CT-induced invasion (PC-3-CTR-wt cells; listed as pepII): attenuate | effect on basal invasion (PC-3-CTR-wt cells): did not significantly affect
